Where a SMILES comes first, the peptide text is derived from it. [ ]: non-standard residue; d: D form. Inp = O=C(O)C1CCNCC1
Assays:
[1] = target: T1, fibrinogen binding to thrombin-stimulated platelets (GPIIb/IIIa fibrinogen receptor) (Homo sapiens, UniProt P05106+P08514); assay: Inhibition of radiolabeled (125I) fibrinogen binding assay; conditions: thrombin-stimulated washed platelets; 125I-fibrinogen held at 0.176 μmol/liter (60 μg/ml); 22°-25° C.
T1 construct: endogenous in cells; host or cells: washed platelets, thrombin-stimulated
Experimental: I. Inhibition of Radiolabeled (^125 I) Fibrinogen Binding Assay, which is essentially based on the method described in Proc. Natl. Acad. Sci. U.S.A. Vol. 83, pp. 5708-5712, August 1986, and is as follows.
Platelets are washed free of plasma constituents by the albumin density-gradient technique. In each experimental mixture platelets in modified Tyrode's buffer are stimulated with human α-thrombin at 22°-25° C. for 10 minutes (3.125×10" platelets per liter and thrombin at […]). Hirudin is then added at a 25-fold excess for 5 minutes before addition of the radiolabeled ligand and any competing ligand. After these additions, the final platelet count in the mixture is 1×10"/liter. After incubation for an additional 30 minutes at 22°-25° C., bound and free ligand are separated by centrifuging 50 μl of the mixture through 300 μl of 20% sucrose at 12,000 xg for 4 minutes. The platelet pellet is then separated from the rest of the mixture to determine platelet-bound radioactivity. Nonspecific binding is measured in mixtures containing an excess of unlabeled ligand. When binding curves are analyzed by Scatchard analysis, nonspecific binding is derived as a fitted parameter from the binding isotherm by means of a computerized program. To determine the concentration of each inhibitory compound necessary to inhibit 50% of fibrinogen binding to thrombin-stimulated platelets (IC50), each compound is tested at 6 or more concentrations with ^125 I-labeled fibrinogen held at 0.176 μmol/liter (60 μg/ml). The IC50 is derived by plotting residual fibrinogen binding against the logarithm of the sample compound's concentration.

Human Platelets = Human Platelets (Homo sapiens, UniProt P05106+P08514); assay: Inhibition of fibrinogen-mediated platelet aggregation; format: cell-based; conditions: compound at 100 μM; thrombin-activated human platelets, human fibrinogen added
Experimental: II. Inhibition of Fibrinogen - Mediated Platelet Aggregation, which is essentially based on the method described in Blood, Vol. 66, No. 4, Oct. 1985, pp. 946-952, and is as follows.
Human Platelets were isolated from freshly drawn whole blood and were suspended in 0.14 mol/L NaCl, 2.7 mmol/L […], 12 mmol/L NaHCO3, 0.42 mmol/L Na2 HPO4, 0.55 mmol/L glucose, and 5 mmol/L Hepes, pH 7.35 at 2×10^8 platelets/ml. The suspension was incubated at 37° C. An aliquot of 0.4 ml of platelet suspension was activated by human thrombin at a final concentration of 2 μg/ml of thrombin for one minute. After one minute the reaction was stopped by a thrombin inhibitor. Serial dilution of the compound being tested was then added to the activated platelet, the reaction was allowed to proceed for one minute, followed by the addition of human fibrinogen at a final concentration of […] of fibrinogen. Platelet aggregation was then recorded by an aggregometer. Rate of aggregation was used to calculate IC50.

T1 sequence (P08514 32-887 limits assumed): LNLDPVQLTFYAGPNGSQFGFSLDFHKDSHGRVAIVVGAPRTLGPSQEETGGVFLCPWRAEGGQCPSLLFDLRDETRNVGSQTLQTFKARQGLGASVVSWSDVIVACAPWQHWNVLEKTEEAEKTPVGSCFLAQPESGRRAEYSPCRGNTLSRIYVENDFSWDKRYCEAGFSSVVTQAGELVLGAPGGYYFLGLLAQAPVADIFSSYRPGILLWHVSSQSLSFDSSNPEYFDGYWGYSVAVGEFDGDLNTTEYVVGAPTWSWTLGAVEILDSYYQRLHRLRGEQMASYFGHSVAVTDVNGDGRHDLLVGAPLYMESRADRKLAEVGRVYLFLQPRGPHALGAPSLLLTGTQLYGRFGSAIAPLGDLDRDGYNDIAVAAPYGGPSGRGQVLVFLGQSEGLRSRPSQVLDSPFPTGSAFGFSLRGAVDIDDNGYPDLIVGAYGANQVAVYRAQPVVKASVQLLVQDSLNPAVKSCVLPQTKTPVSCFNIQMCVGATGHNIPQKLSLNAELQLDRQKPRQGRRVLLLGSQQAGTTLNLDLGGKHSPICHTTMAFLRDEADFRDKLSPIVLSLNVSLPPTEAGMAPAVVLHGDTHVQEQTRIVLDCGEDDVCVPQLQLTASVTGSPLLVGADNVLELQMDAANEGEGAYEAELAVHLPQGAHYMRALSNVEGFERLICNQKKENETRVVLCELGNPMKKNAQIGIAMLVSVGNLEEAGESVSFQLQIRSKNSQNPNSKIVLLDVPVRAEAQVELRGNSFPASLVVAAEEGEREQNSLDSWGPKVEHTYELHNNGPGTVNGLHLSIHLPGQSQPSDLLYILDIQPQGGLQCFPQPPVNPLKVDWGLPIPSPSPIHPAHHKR
T1 sequence (P08514 891-1039 limits assumed): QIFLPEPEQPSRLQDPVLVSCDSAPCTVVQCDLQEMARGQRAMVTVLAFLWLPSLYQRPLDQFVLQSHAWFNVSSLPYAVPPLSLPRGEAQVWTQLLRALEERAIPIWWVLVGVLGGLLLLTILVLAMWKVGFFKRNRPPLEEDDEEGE
T1 sequence (P05106 27-788): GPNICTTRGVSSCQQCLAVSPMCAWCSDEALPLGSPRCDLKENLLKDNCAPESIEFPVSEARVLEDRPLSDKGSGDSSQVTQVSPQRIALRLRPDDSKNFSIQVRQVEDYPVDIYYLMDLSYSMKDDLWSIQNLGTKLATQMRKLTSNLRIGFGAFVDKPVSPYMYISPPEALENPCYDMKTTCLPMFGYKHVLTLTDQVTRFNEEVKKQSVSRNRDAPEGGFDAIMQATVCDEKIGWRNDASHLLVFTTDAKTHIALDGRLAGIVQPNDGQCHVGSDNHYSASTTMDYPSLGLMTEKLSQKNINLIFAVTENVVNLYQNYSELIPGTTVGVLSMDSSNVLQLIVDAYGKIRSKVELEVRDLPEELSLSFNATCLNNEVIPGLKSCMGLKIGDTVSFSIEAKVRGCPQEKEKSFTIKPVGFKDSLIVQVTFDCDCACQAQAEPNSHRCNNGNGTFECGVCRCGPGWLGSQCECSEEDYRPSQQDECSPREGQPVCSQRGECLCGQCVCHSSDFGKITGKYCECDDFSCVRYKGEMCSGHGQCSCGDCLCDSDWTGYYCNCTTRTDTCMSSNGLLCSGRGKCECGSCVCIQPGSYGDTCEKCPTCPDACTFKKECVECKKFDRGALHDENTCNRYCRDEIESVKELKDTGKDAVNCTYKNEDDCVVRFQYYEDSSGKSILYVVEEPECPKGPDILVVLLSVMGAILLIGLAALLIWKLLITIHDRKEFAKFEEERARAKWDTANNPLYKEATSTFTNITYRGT
Human Platelets, sequence (P08514 32-1039): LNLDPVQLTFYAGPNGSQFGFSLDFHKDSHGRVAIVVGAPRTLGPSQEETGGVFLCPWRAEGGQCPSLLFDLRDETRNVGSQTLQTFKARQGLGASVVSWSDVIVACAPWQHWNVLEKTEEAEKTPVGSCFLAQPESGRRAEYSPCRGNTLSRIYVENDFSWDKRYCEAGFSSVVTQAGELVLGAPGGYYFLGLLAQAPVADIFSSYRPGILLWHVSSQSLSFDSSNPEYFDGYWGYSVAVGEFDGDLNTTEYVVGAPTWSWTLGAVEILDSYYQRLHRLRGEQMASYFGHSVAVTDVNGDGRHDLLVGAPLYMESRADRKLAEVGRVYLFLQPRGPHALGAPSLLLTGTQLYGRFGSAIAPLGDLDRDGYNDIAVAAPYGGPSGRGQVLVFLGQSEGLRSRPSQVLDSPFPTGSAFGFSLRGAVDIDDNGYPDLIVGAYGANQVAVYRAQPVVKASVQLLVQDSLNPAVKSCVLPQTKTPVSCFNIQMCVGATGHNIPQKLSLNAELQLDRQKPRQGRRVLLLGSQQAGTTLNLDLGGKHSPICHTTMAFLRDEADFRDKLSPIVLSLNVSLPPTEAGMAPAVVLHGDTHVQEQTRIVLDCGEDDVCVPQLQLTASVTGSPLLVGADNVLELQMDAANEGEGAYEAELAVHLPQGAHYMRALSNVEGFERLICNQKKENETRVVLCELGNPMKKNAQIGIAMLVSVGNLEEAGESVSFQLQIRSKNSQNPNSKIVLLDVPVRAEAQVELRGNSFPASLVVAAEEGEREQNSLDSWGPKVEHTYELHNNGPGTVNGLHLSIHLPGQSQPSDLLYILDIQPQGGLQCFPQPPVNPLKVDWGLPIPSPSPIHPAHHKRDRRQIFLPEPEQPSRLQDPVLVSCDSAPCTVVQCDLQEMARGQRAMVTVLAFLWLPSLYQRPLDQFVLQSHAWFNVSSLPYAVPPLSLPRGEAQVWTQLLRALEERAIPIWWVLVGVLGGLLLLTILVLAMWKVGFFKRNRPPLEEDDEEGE
Human Platelets, sequence (P05106 27-788): as the sequence (P05106 27-788) above

| SMILES | IC50 [1] [µM] | inhibition at 100 µM (Human Platelets) [%] |
| --- | --- | --- |
| CC(C)[C@H](NC(=O)[C@H](CC(=O)O)NC(=O)CNC(=O)C1CCN(C(=N)N)CC1)C(=O)O [1-Amidinopiperidine-4-Carboxylglycyl-L-Aspartyl-L-Valine] | 1.8 | 92 |
| CC(C)[C@H](NC(=O)[C@H](CC(=O)O)NC(=O)CNC(=O)C1CCCN(C(=N)N)C1)C(=O)O (stereo partly drawn) [N-amidinopiperidine-3-carboxylglycyl-L-aspartyl-L-valine] | 10.5 | 87 |
| CC(C)[C@H](NC(=O)[C@H](CC(=O)O)NC(=O)CNC(=O)C1CCCNC1)C(=O)O (stereo partly drawn) [Piperidine-3-Carboxylglycyl-L-Aspartyl-L-Valine] | > 64 | 78 |
| CC(C)[C@H](NC(=O)[C@H](CC(=O)O)NC(=O)CNC(=O)C1CCNCC1)C(=O)O [Piperidine-4-carboxylglycyl-L-Aspartyl-L-Valine] (H-[Inp]GDV-OH) | 10.5 | 86 |
